Test results taken from patent US10100058B2, “Fused heterocyclic compounds as CaM kinase inhibitors” (Gilead Sciences, Inc., priority 2016, dated 2018).

The molecules below were run against recombinant CaMKIIδ (Homo sapiens (Human), UniProt Q13557) (assay: CaMKIIδ biochemical assay (HTRF)). Settings: 10 pM CaMKIIδ, 110 nM calmodulin, 12 μM ATP, 1 hour; read-out: CAMKIID-HTRF-384V2 (IC50 - nM).
Protocol: CaMKIIδ Biochemical Assay
The biochemical activity of recombinant CaMKIIδ was measured by monitoring the phosphorylation of a target peptide using Homogenous Time Resolved Fluorescence (HTRF) technology from CisBio Bioassays.

SMILES	IC50
CC[C@@]1(CNC(=O)c2ccnc(-c3cnn4ccc(-c5cccs5)nc34)c2)CCCN1 [Example 11, (S)—N-((2-ethylpyrrolidin-2-yl)methyl)-2-(5-(thiophen-2-yl)pyrazolo[1,5-a]pyrimidin-3-yl)isonicotinamide]	10.7 nM
CCN(CC)C(CNC(=O)c1ccnc(-c2cnn3ccc(-c4ccccc4)nc23)c1)C(C)C (stereo not shown) [Example 61, N-(2-(diethylamino)-3-methylbutyl)-2-(5-phenylpyrazolo[1,5-a]pyrimidin-3-yl)isonicotinamide]	3.6 nM
CCN(CC)[C@@H](C)CNC(=O)c1cc(-c2cnn3ccc(-c4cccs4)nc23)nc(N2CC(F)(F)C(F)(F)C2)c1 [Example 230, (S)—N-(2-(diethylamino)propyl)-2-(3,3,4,4-tetrafluoropyrrolidin-1-yl)-6-(5-(thiophen-2-yl)pyrazolo[1,5-a]pyrimidin-3-yl)isonicotinamide]	1.8 nM
CC[C@H](CNC(=O)c1cc(-c2cnn3ccc(-c4cccs4)nc23)nc(N2CC[C@H]2C(=O)NC)c1)N(CC)CC (single isomer, unassigned) [Example 356B]	3.04 nM
Cc1cc(C(=O)N2CCCC[C@@H]2CN)cc(-c2cnn3ccc(-c4ccccc4)nc23)n1 [Example 115, (R)-(2-(aminomethyl)piperidin-1-yl)(2-methyl-6-(5-phenylpyrazolo[1,5-a]pyrimidin-3-yl)pyridin-4-yl)methanone]	1.41 nM
CCN(CC)[C@@H](C)CNC(=O)c1cc(O[C@H]2CCOC2)nc(-c2cnn3ccc(-c4cccs4)nc23)c1 [Example 345, N—((S)-2-(diethylamino)propyl)-2-(((S)-tetrahydrofuran-3-yl)oxy)-6-(5-(thiophen-2-yl)pyrazolo[1,5-a]pyrimidin-3-yl)isonicotinamide]	1.22 nM
CCN[C@H](C)CNC(=O)c1ccnc(-c2cnn3ccc(-c4ccccc4)nc23)c1 [Example 74, (R)—N-(2-(ethylamino)propyl)-2-(5-phenylpyrazolo[1,5-a]pyrimidin-3-yl)isonicotinamide]	34.2 nM
CCNC(C)(C)CNC(=O)c1ccnc(-c2cnn3ccc(-c4ccccc4)nc23)c1 [Example 67, N-(2-(ethylamino)-2-methylpropyl)-2-(5-phenylpyrazolo[1,5-a]pyrimidin-3-yl)isonicotinamide]	102 nM
O=C(c1ccnc(-c2cnn3ccc(-c4ccccc4)nc23)c1)N1CCC2CNCC21 (stereo not shown) [Example 92, (hexahydropyrrolo[3,4-b]pyrrol-1(2H)-yl)(2-(5-phenylpyrazolo[1,5-a]pyrimidin-3-yl)pyridin-4-yl)methanone]	32.1 nM
Nc1cc(C(=O)N2C3CCNCC2CC3)cc(-c2cnn3ccc(-c4cccs4)nc23)n1 (stereo not shown) [Example 129, (2-amino-6-(5-(thiophen-2-yl)pyrazolo[1,5-a]pyrimidin-3-yl)pyridin-4-yl)(-3,9-diazabicyclo[4.2.1]nonan-9-yl)methanone]	1.55 nM
COC1CN(c2cc(C(=O)N3C4CC[C@@H]3CCNC4)cc(-c3cnn4ccc(-c5ccccc5)nc34)n2)C1 (stereo in doubt) [Example 330, (-3,9-diazabicyclo[4.2.1]nonan-9-yl)(2-(3-methoxyazetidin-1-yl)-6-(5-phenylpyrazolo[1,5-a]pyrimidin-3-yl)pyridin-4-yl)methanone]	44.6 nM
CC(C)(C)c1cc(C(=O)N2CCCC[C@@H]2CN)cc(-c2cnn3ccc(-c4ccccc4)nc23)n1 [Example 130, (R)-(2-(aminomethyl)piperidin-1-yl)(2-(tert-butyl)-6-(5-phenylpyrazolo[1,5-a]pyrimidin-3-yl)pyridin-4-yl)methanone]	266 nM
O=C(c1ccnc(-c2cnn3ccc(-c4cccs4)nc23)c1)N1CCC[C@@H]2CCNC[C@@H]21 [Example 101, ((4aR,8aR)-octahydro-1,7-naphthyridin-1(2H)-yl)(2-(5-(thiophen-2-yl)pyrazolo[1,5-a]pyrimidin-3-yl)pyridin-4-yl)methanone]	9.54 nM
C[C@H](N)CNC(=O)c1ccnc(-c2cnn3ccc(-c4cccs4)nc23)c1 [Example 22, (S)—N-(2-aminopropyl)-2-(5-(thiophen-2-yl)pyrazolo[1,5-a]pyrimidin-3-yl)isonicotinamide]	13.9 nM

These reach a lower IC50. Values come first.

IC50	SMILES
0.84 nM	Cc1cnc(-c2cnn3ccc(-c4ccccc4)nc23)cc1C(=O)N1CCCC[C@@H]1CN [Example 136, (R)-(2-(aminomethyl)piperidin-1-yl)(5-methyl-2-(5-phenylpyrazolo[1,5-a]pyrimidin-3-yl)pyridin-4-yl)methanone]
0.7 nM	CCC(CNC(=O)c1cc(-c2cnn3ccc(-c4cccs4)nc23)nc(N2CC[C@H]2C(=O)NC)c1)N(CC)CC (stereo partly drawn) [Example 356, N-(2-(diethylamino)butyl)-2-((S)-2-(methylcarbamoyl)azetidin-1-yl)-6-(5-(thiophen-2-yl)pyrazolo[1,5-a]pyrimidin-3-yl)isonicotinamide]
0.64 nM	CCN(CC)[C@@H](C)CNC(=O)c1cc(NS(C)(=O)=O)nc(-c2cnn3ccc(-c4cccs4)nc23)c1 [Example 181, (S)—N-(2-(diethylamino)propyl)-2-(methylsulfonamido)-6-(5-(thiophen-2-yl)pyrazolo[1,5-a]pyrimidin-3-yl)isonicotinamide]
0.63 nM	CCN(CC)[C@@H](C)CNC(=O)c1cc(-c2cnn3ccc(-c4cccs4)nc23)nc(N2CCC[C@H]2COC)c1 [Example 274, N—((S)-2-(diethylamino)propyl)-2-((S)-2-(methoxymethyl)pyrrolidin-1-yl)-6-(5-(thiophen-2-yl)pyrazolo[1,5-a]pyrimidin-3-yl)isonicotinamide]
0.35 nM	CCN(CC)[C@@H](C)CNC(=O)c1cc(-c2ncco2)nc(-c2cnn3ccc(-c4cccs4)nc23)c1 [Example 339, (S)—N-(2-(diethylamino)propyl)-2-(oxazol-2-yl)-6-(5-(thiophen-2-yl)pyrazolo[1,5-a]pyrimidin-3-yl)isonicotinamide]
0.3 nM	CCN(CC)[C@@H](C)CNC(=O)c1cc(NCc2cc[nH]n2)nc(-c2cnn3ccc(-c4cccs4)nc23)c1 [Example 212, (S)-2-(((1H-pyrazol-3-yl)methyl)amino)-N-(2-(diethylamino)propyl)-6-(5-(thiophen-2-yl)pyrazolo[1,5-a]pyrimidin-3-yl)isonicotinamide]
0.28 nM	CCN(CC)[C@@H](C)CNC(=O)c1cc(NCC(N)=O)nc(-c2cnn3ccc(-c4cccs4)nc23)c1 [Example 238, (S)-2-((2-amino-2-oxoethyl)amino)-N-(2-(diethylamino)propyl)-6-(5-(thiophen-2-yl)pyrazolo[1,5-a]pyrimidin-3-yl)isonicotinamide]
0.2 nM	CCN(CC)[C@@H](C)CNC(=O)c1cc(-c2cnn3ccc(-c4cccs4)nc23)nc(N2CC[C@H]2C(=O)NC)c1 [Example 275, N—((S)-2-(diethylamino)propyl)-2-((S)-2-(methylcarbamoyl)azetidin-1-yl)-6-(5-(thiophen-2-yl)pyrazolo[1,5-a]pyrimidin-3-yl)isonicotinamide]
0.2 nM	CCN(CC)[C@@H](C)CNC(=O)c1cc(-c2cnn3ccc(-c4cccs4)nc23)nc(N2CC[C@H]2C(=O)N2CC(S(C)(=O)=O)C2)c1 [Example 302, N—((S)-2-(diethylamino)propyl)-2-((S)-2-(3-(methylsulfonyl)azetidine-1-carbonyl)azetidin-1-yl)-6-(5-(thiophen-2-yl)pyrazolo[1,5-a]pyrimidin-3-yl)isonicotinamide]
0.18 nM	CCN(CC)[C@@H](C)CNC(=O)c1cc(-c2cnn3ccc(-c4cccs4)nc23)nc(N2CC[C@H]2C(=O)N2CC(F)C2)c1 [Example 284, N—((S)-2-(diethylamino)propyl)-2-((S)-2-(3-fluoroazetidine-1-carbonyl)azetidin-1-yl)-6-(5-(thiophen-2-yl)pyrazolo[1,5-a]pyrimidin-3-yl)isonicotinamide]
0.17 nM	CCN(CC)[C@@H](C)CNC(=O)c1cc(-c2cnn3ccc(-c4cccs4)nc23)nc(N2CC[C@H]2C(=O)N2CC(O)C2)c1 [Example 304, N—((S)-2-(diethylamino)propyl)-2-((S)-2-(3-hydroxyazetidine-1-carbonyl)azetidin-1-yl)-6-(5-(thiophen-2-yl)pyrazolo[1,5-a]pyrimidin-3-yl)isonicotinamide]
0.13 nM	CCN(CC)[C@@H](C)CNC(=O)c1cc(-c2cnn3ccc(-c4cccs4)nc23)nc(N2CC(F)C2)c1 [Example 153, (S)—N-(2-(diethylamino)propyl)-2-(3-fluoroazetidin-1-yl)-6-(5-(thiophen-2-yl)pyrazolo[1,5-a]pyrimidin-3-yl)isonicotinamide]
0.11 nM	CCN(CC)[C@@H](C)CNC(=O)c1cc(NCCCO)nc(-c2cnn3ccc(-c4cccs4)nc23)c1 [Example 220, (S)—N-(2-(diethylamino)propyl)-2-((3-hydroxypropyl)amino)-6-(5-(thiophen-2-yl)pyrazolo[1,5-a]pyrimidin-3-yl)isonicotinamide]
0.1 nM	CCN(CC)[C@@H](C)CNC(=O)c1cc(-c2cc[nH]n2)nc(-c2cnn3ccc(-c4cccs4)nc23)c1 [Example 336, (S)—N-(2-(diethylamino)propyl)-2-(1H-pyrazol-3-yl)-6-(5-(thiophen-2-yl)pyrazolo[1,5-a]pyrimidin-3-yl)isonicotinamide]
0.07 nM	CCN(CC)[C@@H](C)CNC(=O)c1cc(-c2cnn3ccc(-c4cccs4)nc23)nc(N2CC(C)(OC)C2)c1 [Example 227, (S)—N-(2-(diethylamino)propyl)-2-(3-methoxy-3-methylazetidin-1-yl)-6-(5-(thiophen-2-yl)pyrazolo[1,5-a]pyrimidin-3-yl)isonicotinamide]
0.06 nM	CCN(CC)[C@@H](C)CNC(=O)c1cc(-c2cnn3ccc(-c4cccs4)nc23)nc(N2CC[C@H]2CO)c1 [Example 268, N—((S)-2-(diethylamino)propyl)-2-((S)-2-(hydroxymethyl)azetidin-1-yl)-6-(5-(thiophen-2-yl)pyrazolo[1,5-a]pyrimidin-3-yl)isonicotinamide]

Same assay, conditions: potency against CamKIIδ acquired with in-house assays, reference for selectivity values; read-out: CamKIIδ potency (Table 1)

IC50	SMILES
0.43 nM	CCN(CC)[C@@H](C)CNC(=O)c1cc(-c2cnn3ccc(-c4cccs4)nc23)nc(N2CC[C@H]2C(=O)NC)c1 [Example 275, N—((S)-2-(diethylamino)propyl)-2-((S)-2-(methylcarbamoyl)azetidin-1-yl)-6-(5-(thiophen-2-yl)pyrazolo[1,5-a]pyrimidin-3-yl)isonicotinamide]
